Source: patent US20250197372A1 (priority 2020, published 2025)

How the values were obtained:
Format in all cases: biochemical
[1] = biological target: rat maltase (partially purified alpha-glucosidase from intestinal rat powder); experiment: Intestinal alpha-glucosidase assay, maltose substrate (Glucose GO Kit)
Outline: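 Glucose release is the read-out: compounds at multiple dilutions are first held with partially purified rat intestinal alpha-glucosidase for 60 min at 37 °C, after which maltose or sucrose substrate reacts for 30 min at 37 °C before a 5 min 90 °C stop. IC50 comes from a four-parameter logistic fit.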

[2] = biological target: T1, recombinant alpha-glucosidase II (murine full-length glucosidase II, alpha and beta subunits, Glu 2) (Mus musculus, UniProt Q8BHN3); experiment: Alpha-glucosidase II assay (4-methylumbelliferyl-alpha-D-pyranoside substrate, fluorescence); details: Glucosidase 2; read-out: Glu2 IC50
T1 construct: made in house; host or cells: HEK-293T cells transduced with BacMam viruses (75% alpha, 25% beta); protein harvested from culture supernatant
T1 sequence (O08795 15-521): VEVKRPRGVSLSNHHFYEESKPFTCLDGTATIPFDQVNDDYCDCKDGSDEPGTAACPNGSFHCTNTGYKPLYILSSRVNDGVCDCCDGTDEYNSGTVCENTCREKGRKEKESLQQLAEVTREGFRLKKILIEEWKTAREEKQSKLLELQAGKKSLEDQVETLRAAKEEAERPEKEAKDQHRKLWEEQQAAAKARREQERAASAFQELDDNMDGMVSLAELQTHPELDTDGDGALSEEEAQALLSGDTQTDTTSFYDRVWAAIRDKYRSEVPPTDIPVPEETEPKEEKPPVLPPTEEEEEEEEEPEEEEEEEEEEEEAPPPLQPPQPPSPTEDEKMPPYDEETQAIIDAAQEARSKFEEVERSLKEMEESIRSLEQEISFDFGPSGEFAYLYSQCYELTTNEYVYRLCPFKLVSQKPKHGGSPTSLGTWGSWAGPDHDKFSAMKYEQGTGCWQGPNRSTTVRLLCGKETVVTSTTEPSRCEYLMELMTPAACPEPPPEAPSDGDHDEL
T1 sequence (Q8BHN3 33-944): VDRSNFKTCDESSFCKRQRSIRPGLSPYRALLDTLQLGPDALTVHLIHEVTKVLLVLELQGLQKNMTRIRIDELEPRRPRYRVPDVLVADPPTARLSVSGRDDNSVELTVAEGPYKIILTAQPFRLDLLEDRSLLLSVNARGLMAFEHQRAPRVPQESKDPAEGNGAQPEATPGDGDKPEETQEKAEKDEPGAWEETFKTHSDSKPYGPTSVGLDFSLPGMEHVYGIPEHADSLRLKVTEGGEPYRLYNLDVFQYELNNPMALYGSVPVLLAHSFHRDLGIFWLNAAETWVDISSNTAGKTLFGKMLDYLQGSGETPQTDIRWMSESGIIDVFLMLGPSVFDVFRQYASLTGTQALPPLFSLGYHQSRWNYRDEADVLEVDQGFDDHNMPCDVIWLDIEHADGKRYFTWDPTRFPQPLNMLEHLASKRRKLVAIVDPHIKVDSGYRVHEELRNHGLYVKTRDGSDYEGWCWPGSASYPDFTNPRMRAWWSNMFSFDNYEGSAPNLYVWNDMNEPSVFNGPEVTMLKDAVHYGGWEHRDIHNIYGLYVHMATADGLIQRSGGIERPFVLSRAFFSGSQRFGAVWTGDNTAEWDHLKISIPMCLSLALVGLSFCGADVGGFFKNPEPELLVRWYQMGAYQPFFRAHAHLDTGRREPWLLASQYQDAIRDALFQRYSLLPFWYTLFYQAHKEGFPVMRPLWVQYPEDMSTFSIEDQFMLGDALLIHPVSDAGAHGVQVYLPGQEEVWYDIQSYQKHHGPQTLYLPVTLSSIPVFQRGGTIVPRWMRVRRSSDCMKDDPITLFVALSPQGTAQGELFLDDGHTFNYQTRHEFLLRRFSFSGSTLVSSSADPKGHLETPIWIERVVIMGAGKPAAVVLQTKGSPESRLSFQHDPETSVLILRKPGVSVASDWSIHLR

[3] = biological target: recombinant human GAA (acid alpha-glucosidase) (Homo sapiens, UniProt P10253); experiment: Acid alpha-glucosidase (GAA) assay (4-methylumbelliferyl-alpha-D-pyranoside substrate, fluorescence)
Outline: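 Recombinant human enzyme preincubated 60 min at 37 °C with compound dilutions, then 4-methylumbelliferyl-alpha-D-pyranoside substrate added for 20 min at 37 °C. Stopped with glycine/NaOH pH 10; methylumbelliferone fluorescence (ex 365, em 440 nm) versus untreated enzyme; IC50 by 4-PL fit.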

SMILES | IC50 [1] [nM] | IC50 [2] [nM] | IC50 [3] [nM]
Cc1cc(NCc2cccc(CN3C[C@H](O)[C@@H](O)[C@H](O)[C@H]3CO)n2)cc(N2CCOCC2)c1 [Compound 1336, (2R,3R,4R,5S)-2-(hydroxymethyl)-1-{[6-({[3-methyl-5-(morpholin-4-yl)phenyl]amino}methyl)pyridin-2-yl]methyl}piperidine-3,4,5-triol] | 9990 | > 100000 | 10400
COc1cc(NCCCCCCN2C[C@H](O)[C@@H](O)[C@H](O)[C@H]2CO)cc(-c2ncccn2)c1 [Compound 1217, (2R,3R,4R,5S)-2-(hydroxymethyl)-1-(6-{[3-methoxy-5-(pyrimidin-2-yl)phenyl]amino}hexyl)piperidine-3,4,5-triol] | 11 | 11 | 10
Cc1cc(NCc2cccc(CN3C[C@H](O)[C@@H](O)[C@H](O)[C@H]3CO)c2)cc(N2CCOCC2)c1 [Compound 1031, (2R,3R,4R,5S)-2-(hydroxymethyl)-1-{[3-({[3-methyl-5-(morpholin-4-yl)phenyl]amino}methyl)phenyl]methyl}piperidine-3,4,5-triol] | 174 | 10700 | 5220
O=[N+]([O-])c1cc(N2CC3CC2CO3)ccc1NCc1ccc(CN2C[C@@H](O)[C@H](O)[C@@H](O)[C@@H]2CO)cc1 (stereo in doubt) [Compound 1015, (2S,3S,4S,5R)-2-(hydroxymethyl)-1-[(4-{[(2-nitro-4-{2-oxa-5-azabicyclo[2.2.1]heptan-5-yl}phenyl)amino]methyl}phenyl)methyl]piperidine-3,4,5-triol] | 8 | 2 | 129
Cc1cc(NCc2cnc(CN3C[C@H](O)[C@@H](O)[C@H](O)[C@H]3CO)cn2)cc(-c2ccc[nH]2)c1 [Compound 1330, (2R,3R,4R,5S)-2-(hydroxymethyl)-1-{[5-({[3-methyl-5-(1H-pyrrol-2-yl)phenyl]amino}methyl)pyrazin-2-yl]methyl}piperidine-3,4,5-triol] | 577 | 14400 | 90
Cc1nc(=O)c2cc(-c3ncccn3)ccc2n1CCCCCCN1C[C@H](O)[C@@H](O)[C@H](O)[C@H]1CO [Compound 1246, 2-methyl-6-(pyrimidin-2-yl)-1-{6-[(2R,3R,4R,5S)-3,4,5-trihydroxy-2-(hydroxymethyl)piperidin-1-yl]hexyl}-1,4-dihydroquinazolin-4-one] | > 100000 | 4 | 46
Cc1cc(NCc2cccc(CN3C[C@H](O)[C@@H](O)[C@H](O)[C@H]3CO)c2)cc(-c2ccc[nH]2)c1 [Compound 1033, (2R,3R,4R,5S)-2-(hydroxymethyl)-1-{[3-({[3-methyl-5-(1H-pyrrol-2-yl)phenyl]amino}methyl)phenyl]methyl}piperidine-3,4,5-triol] | 37 | > 100000 | 5370
Cc1cc(NCc2cccc(CN3C[C@H](O)[C@@H](O)[C@H](O)[C@H]3CO)c2)cc(C2=COCCO2)c1 [Compound 1032, (2R,3R,4R,5S)-1-{[3-({[3-(5,6-dihydro-1,4-dioxin-2-yl)-5-methylphenyl]amino}methyl)phenyl]methyl}-2-(hydroxymethyl)piperidine-3,4,5-triol] | 73 | 47700 | 4170
N#Cc1ccc(F)cc1NCCCCCCN1C[C@H](O)[C@@H](O)[C@H](O)[C@H]1CO [Compound 1251, 4-fluoro-2-({6-[(2R,3R,4R,5S)-3,4,5-trihydroxy-2-(hydroxymethyl)piperidin-1-yl]hexyl}amino)benzonitrile] | 4 | 12 | 41
NS(=O)(=O)c1cc(-c2ncccn2)ccc1NCCCCCCN1C[C@H](O)[C@@H](O)[C@H](O)[C@H]1CO [Compound 1265, 5-(pyrimidin-2-yl)-2-({6-[(2R,3R,4R,5S)-3,4,5-trihydroxy-2-(hydroxymethyl)piperidin-1-yl]hexyl}amino)benzene-1-sulfonamide] | 5 | 12 | 35
N#Cc1cc(NCc2cccc(CN3C[C@H](O)[C@@H](O)[C@H](O)[C@H]3CO)c2)cc(N2CCOCC2)c1 [Compound 1042, 3-(morpholin-4-yl)-5-{[(3-{[(2R,3R,4R,5S)-3,4,5-trihydroxy-2-(hydroxymethyl)piperidin-1-yl]methyl}phenyl)methyl]amino}benzonitrile] | 29 | 8680 | 1830
[N-]=[N+]=Nc1ccc(NCCN(CCC(N)=O)CCN2C[C@H](O)[C@@H](O)[C@H](O)[C@H]2CO)c([N+](=O)[O-])c1 [Compound 1235] | 7160 | 530 | 37800
COc1cc(NCCCCCCN2C[C@H](O)[C@@H](O)[C@H](O)[C@H]2CO)cc(-c2ncco2)c1 [Compound 1216, (2R,3R,4R,5S)-2-(hydroxymethyl)-1-(6-{[3-methoxy-5-(1,3-oxazol-2-yl)phenyl]amino}hexyl)piperidine-3,4,5-triol] | 8 | 2 | 37
Cc1cc(Br)cc(NCc2cccc(CN3C[C@H](O)[C@@H](O)[C@H](O)[C@H]3CO)c2)c1 [Compound 1021, (2R,3R,4R,5S)-1-[(3-{[(3-bromo-5-methylphenyl)amino]methyl}phenyl)methyl]-2-(hydroxymethyl)piperidine-3,4,5-triol] | 8 | 35000 | 2090
Nc1ccc(NCCc2ccccc2CCN2C[C@H](O)[C@@H](O)[C@H](O)[C@H]2CO)c([N+](=O)[O-])c1Cl [Compound 1239, (2R,3R,4R,5S)-1-[2-(2-{2-[(4-amino-3-chloro-2-nitrophenyl)amino]ethyl}phenyl)ethyl]-2-(hydroxymethyl)piperidine-3,4,5-triol] | < 1 | 108 | 1240
OC[C@@H]1[C@@H](O)[C@H](O)[C@@H](O)CN1CCCCCCNc1cc(Cl)cc(-c2ncco2)c1 [Compound 1211, (2R,3R,4R,5S)-1-(6-{[3-chloro-5-(1,3-oxazol-2-yl)phenyl]amino}hexyl)-2-(hydroxymethyl)piperidine-3,4,5-triol] | 1 | 2 | 16
[N-]=[N+]=Nc1ccc(NCCOCCN2C[C@H](O)[C@@H](O)[C@H](O)[C@H]2CO)c([N+](=O)[O-])c1 [Compound 1255, (2R,3R,4R,5S)-1-(2-{2-[(4-azido-2-nitrophenyl)amino]ethoxy}ethyl)-2-(hydroxymethyl)piperidine-3,4,5-triol] | 33 | 29 | 228
O=S(=O)(Nc1cc(-c2ncccn2)ccc1NCCCCCCN1C[C@H](O)[C@@H](O)[C@H](O)[C@H]1CO)C1CC1 [Compound 1227, N-[5-(pyrimidin-2-yl)-2-({6-[(2R,3R,4R,5S)-3,4,5-trihydroxy-2-(hydroxy-methyl)piperidin-1-yl]hexyl}amino)phenyl]cyclopropanesulfonamide] | 12 | 17 | 82
[N-]=[N+]=Nc1ccc(NCCS(=O)(=O)CCCN2C[C@H](O)[C@@H](O)[C@H](O)[C@H]2CO)c([N+](=O)[O-])c1 [Compound 1274, (2R,3R,4R,5S)-1-(3-{2-[(4-azido-2-nitrophenyl)amino]ethane-sulfonyl}propyl)-2-(hydroxymethyl)piperidine-3,4,5-triol] | 151 | 48 | 136
COc1ccc(CCCCCN2C[C@H](O)[C@@H](O)[C@H](O)[C@H]2CO)cc1 [Compound 1310, (2R,3R,4R,5S)-2-(hydroxymethyl)-1-[5-(4-methoxyphenyl)pentyl]piperidine-3,4,5-triol] | < 10 | 78 | 1190
[N-]=[N+]=Nc1ccc(N2CC(OCCN3C[C@H](O)[C@@H](O)[C@H](O)[C@H]3CO)C2)c([N+](=O)[O-])c1 [Compound 1252, (2R,3R,4R,5S)-1-(2-{[1-(4-azido-2-nitrophenyl)azetidin-3-yl]oxy}ethyl)-2-(hydroxymethyl)piperidine-3,4,5-triol] | 37 | 82 | 141
OC[C@@H]1[C@@H](O)[C@H](O)[C@@H](O)CN1CCCCCCNc1ccc(-c2ncccn2)cc1C(F)(F)F [Compound 1258, (2R,3R,4R,5S)-2-(hydroxymethyl)-1-(6-{[4-(pyrimidin-2-yl)-2-(trifluoromethyl)phenyl]amino}hexyl)piperidine-3,4,5-triol] | 19 | 31 | 32
Nc1ccc(NCCCCCCCCN2C[C@H](O)[C@@H](O)[C@H](O)[C@H]2CO)c([N+](=O)[O-])c1Cl [Compound 1277, (2R,3R,4R,5S)-1-{8-[(4-amino-3-chloro-2-nitrophenyl)amino]octyl} 2-(hydroxymethyl)piperidine-3,4,5-triol] | 52 | < 1 | < 10
Cc1cc(Br)cc(NCc2ccc(CN3C[C@H](O)[C@@H](O)[C@H](O)[C@H]3CO)cc2)c1 [Compound 1024, (2R,3R,4R,5S)-1-[(4-{[(3-bromo-5-methylphenyl)amino]methyl}phenyl)methyl]-2-(hydroxymethyl)piperidine-3,4,5-triol] | 2 | – | 221
CN(Cc1cccc(CN2C[C@H](O)[C@@H](O)[C@H](O)[C@H]2CO)c1)c1ccc(CN2CCCO2)cc1[N+](=O)[O-] [Compound 1020] | 44 | – | 1160
